Laboratory results taken from patent US7560482B2, “Inhibitors of plasmepsins” (The Johns Hopkins University, priority 2001, dated 2009).
Like-named read-outs stand apart in the source and are kept apart here.

Legend:
human Cathepsin D = target: T1, human Cathepsin D (Homo sapiens, UniProt P07339); test: Cathepsin D inhibition assay, hydrolysis of chromogenic substrate; assay type: biochemical
T1 construct: purchased
Description: (§1) The specific activity of plasmepsin II from Plasmodium falciparum (Plm II) cloned in and purified from Escherchia coli and commercially available human Cathepsin D were measured by following the hydrolysis of the chromogenic substrate Ala-Leu-Glu-Arg-Thr-nPhe-Phe-Ser-Phe-Pro-Thr-OH (California Peptide Research Inc., Napa, Calif.). The decrease in absorbance upon hydrolysis is monitored at 300 nm. Typical Plasmepsin II preparations hydrolyze chromogenic substrate at 4-5 s^−1 at 37° C. The inhibition assays were performed at 25° C. in 10 mM sodium formate, 2% DMSO, pH 4.0. These pH conditions mimic the conditions in the food vacuole of the parasite. […] Inhibition constants (Ki) for the inhibitors are obtained at the desired temperature and solvent conditions by measuring the rate of substrate hydrolysis at increasing amounts of inhibitors. Exemplary results from three compounds (KNI-10033, KNI-10030 and KNI-10006) are shown in FIG. 7A-C, and the results obtained with all KNI compounds tested are given in Table 1.

[1] = target: T2, plasmepsin II from Plasmodium falciparum (Plm II) (Plasmodium falciparum, UniProt P46925); test: Plasmepsin II inhibition assay, hydrolysis of chromogenic substrate; assay type: biochemical; conditions: for discrimination factor / Cathepsin D selectivity: Plasmepsin II versus Cathepsin D, fold; for Discrimination Factor: Fold Selectivity for Plasmepsin II over Cathepsin D: ratio of the Ki for Cathepsin D to the Ki for Plasmepsin II
T2 construct: made in house; host or cells: Escherichia coli
Description: FIG. 7A-C. Inhibition of Plasmepsin II from Plasmodium falciparum by KNI-10033, KNI-10030 and KNI-10006 at 20° C. in 10 mM sodium citrate, 100 mM NaCl, 2% DMSO, pH 4.0. The inhibition constants are 3 nM, 11 nM and 0.5 rLM respectively.
as §1

[2] = 25° C., 10 mM sodium formate, 2% DMSO, pH 4.0, fit to competitive inhibition, read-out: Ki CatD
[3] = Table 2, read-out: Ki Cathepsin D
[4] = 25° C., 10 mM sodium formate, 2% DMSO, pH 4.0, fit to competitive inhibition, read-out: Ki Plm II
[5] = Table 2, read-out: Ki Plasmepsin II
[6] = 20° C., 10 mM sodium citrate, 100 mM NaCl, 2% DMSO, pH 4.0, read-out: inhibition constant, Plasmepsin II (FIG. 7)

T1 sequence (P07339 65-412): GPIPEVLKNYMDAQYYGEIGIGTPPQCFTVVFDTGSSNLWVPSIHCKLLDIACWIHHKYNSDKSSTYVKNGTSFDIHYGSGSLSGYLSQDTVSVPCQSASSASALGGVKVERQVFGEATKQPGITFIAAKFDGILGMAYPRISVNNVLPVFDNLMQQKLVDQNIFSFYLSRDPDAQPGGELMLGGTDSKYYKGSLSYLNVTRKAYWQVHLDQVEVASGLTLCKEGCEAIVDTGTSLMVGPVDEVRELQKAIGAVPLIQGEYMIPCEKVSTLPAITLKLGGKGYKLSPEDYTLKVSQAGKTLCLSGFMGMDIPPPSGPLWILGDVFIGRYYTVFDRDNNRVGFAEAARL
T2 sequence (P46925 125-453): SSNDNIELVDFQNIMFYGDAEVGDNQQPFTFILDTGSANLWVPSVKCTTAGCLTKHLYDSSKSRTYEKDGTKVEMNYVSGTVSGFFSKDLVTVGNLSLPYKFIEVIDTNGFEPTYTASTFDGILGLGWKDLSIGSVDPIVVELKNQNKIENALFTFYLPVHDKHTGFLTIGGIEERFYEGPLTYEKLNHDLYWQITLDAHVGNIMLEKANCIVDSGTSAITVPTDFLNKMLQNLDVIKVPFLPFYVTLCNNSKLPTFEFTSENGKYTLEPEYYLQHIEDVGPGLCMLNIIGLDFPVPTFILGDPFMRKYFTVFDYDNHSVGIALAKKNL

Ki (human Cathepsin D; [2])	Ki [1, 4]	Structure (SMILES)	further results
1770 ± 230 nM	36 ± 10 nM	CSCC(NC(=O)COc1cccc2cnccc12)C(=O)NC(Cc1ccccc1)C(O)C(=O)N1CSC(C)(C)C1C(=O)NC(C)(C)C (stereo not drawn) [KNI-227]	Ki (human Cathepsin D; [3]): 1770 nM; inhibition constants against Plasmepsin II, in words [1]: nanomolar and subnanomolar range; discrimination factor / Cathepsin D selectivity [1]: 50; Ki [1, 5]: 36 nM; Discrimination Factor: Fold Selectivity for Plasmepsin II over Cathepsin D [1]: ~49; Ki ([1]; read-out: Ki against Plasmepsin II): 30 nM
2580 ± 300 nM	1000 ± 200 nM	CSC[C@H](NC(=O)COc1cccc2cnccc12)C(=O)N[C@@H](Cc1ccccc1)[C@H](O)C(=O)N1CSC[C@H]1C(=O)NC(C)(C)C [KNI-272]	
8120 ± 1500 nM	96900 ± 19100 nM	CC(C)(C)NC(=O)[C@@H]1CSCN1C(=O)[C@@H](O)[C@H](Cc1ccccc1)NC(=O)CCC(=O)O [KNI-357]	
1350 ± 80 nM	12700 ± 1500 nM	CC(C)(C)NC(=O)[C@@H]1CSCN1C(=O)[C@@H](O)[C@H](Cc1ccccc1)NC(=O)CC(C)(C)C(=O)O [KNI-391]	Ki (human Cathepsin D; read-out: Ki for Cathepsin D): 1350 nM
7260 ± 1400 nM	1390 ± 500 nM	CC(C)(C)NC(=O)[C@H]1N(C(=O)[C@@H](O)[C@H](Cc2ccccc2)NC(=O)CC(C)(C)C(=O)O)CSC1(C)C [KNI-413]	
3700 ± 350 nM	340 ± 20 nM	CC(C)[C@H](NC(=O)COc1cccc2cnccc12)C(=O)N[C@@H](Cc1ccccc1)[C@H](O)C(=O)N1CSC(C)(C)[C@H]1C(=O)NC(C)(C)C [KNI-492]	
8820 ± 2800 nM	8090 ± 2600 nM	CSC[C@H](NC(=O)COc1cccc2cnccc12)C(=O)N[C@@H](Cc1ccccc1)[C@@H](O)C(=O)N1CSC[C@H]1C(=O)NC(C)(C)C [KNI-529]	
18200 ± 3300 nM	30700 ± 8100 nM	CC(C(=O)O)C(C)C(=O)N[C@@H](Cc1ccccc1)[C@H](O)C(=O)N1CSC[C@H]1C(=O)NC(C)(C)C (stereo partly drawn) [KNI-547]	
3440 ± 700 nM	590 ± 70 nM	Cc1c(O)cccc1C(=O)N[C@@H](Cc1ccccc1)[C@H](O)C(=O)N1CSC(C)(C)[C@H]1C(=O)NC(C)(C)C [KNI-577]	
1600 ± 300 nM	70 ± 40 nM	Cc1cccc(C)c1OCC(=O)NC(Cc1ccccc1)C(O)C(=O)N1CSC(C)(C)C1C(=O)NC(C)(C)C (stereo not drawn) [KNI-727]	Ki (human Cathepsin D; [3]): 1600 nM; inhibition constants against Plasmepsin II, in words [1]: nanomolar and subnanomolar range; discrimination factor / Cathepsin D selectivity [1]: 22; Discrimination Factor: Fold Selectivity for Plasmepsin II over Cathepsin D [1]: ~23
1610 ± 330 nM	359 ± 60 nM	CC[C@H](C)[C@H](NC(=O)COc1cccc2cnccc12)C(=O)N[C@@H](Cc1ccccc1)[C@H](O)C(=O)N1CSC(C)(C)[C@H]1C(=O)NC(C)(C)C [KNI-10001]	
112 ± 20 nM	244 ± 20 nM	CC(C)[C@H](NC(=O)c1cc(=O)c2ccccc2o1)C(=O)N[C@@H](Cc1ccccc1)[C@H](O)C(=O)N1CSC(C)(C)[C@H]1C(=O)NC(C)(C)C [KNI-10002]	
970 ± 100 nM	1150 ± 190 nM	CC(C)[C@H](NC(=O)c1ccccn1)C(=O)N[C@@H](Cc1ccccc1)[C@H](O)C(=O)N1CSC(C)(C)[C@H]1C(=O)NC(C)(C)C [KNI-10003]	
290 ± 90 nM	522 ± 50 nM	CC(C)[C@H](NC(=O)c1ccc2ccccc2n1)C(=O)N[C@@H](Cc1ccccc1)[C@H](O)C(=O)N1CSC(C)(C)[C@H]1C(=O)NC(C)(C)C [KNI-10004]	
507 ± 100 nM	250 ± 190 nM	CC(C)[C@H](NC(=O)COc1cccc(Nc2ccccc2)c1)C(=O)N[C@@H](Cc1ccccc1)[C@H](O)C(=O)N1CSC(C)(C)[C@H]1C(=O)NC(C)(C)C [KNI-10005]	
2 nM		Cc1cccc(C)c1OCC(=O)N[C@@H](Cc1ccccc1)[C@H](O)C(=O)N1CSC(C)(C)[C@H]1C(=O)N[C@H]1c2ccccc2C[C@H]1O [KNI-10006]	Ki (human Cathepsin D; [3]): 2 nM; inhibition constants against Plasmepsin II, in words [1]: nanomolar and subnanomolar range; discrimination factor / Cathepsin D selectivity [1]: 4; Ki [1, 5]: 0.5 nM; Discrimination Factor: Fold Selectivity for Plasmepsin II over Cathepsin D [1]: 4; Ki ([1]; read-out: Ki (Plasmepsin II)): 0.5 nM
806 ± 600 nM	71 ± 10 nM	Cc1cccc(C)c1OCC(=O)N[C@@H](Cc1ccccc1)[C@H](O)C(=O)N1CSC(C)(C)[C@H]1C(=O)N[C@@H]1c2ccccc2C[C@@H]1O [KNI-10007]	
461 ± 140 nM	169 ± 20 nM	COc1ccc(CNC(=O)[C@H]2N(C(=O)[C@@H](O)[C@H](Cc3ccccc3)NC(=O)COc3c(C)cccc3C)CSC2(C)C)cc1 [KNI-10008]	
515 ± 47 nM	2180 ± 250 nM	CC(C)[C@H](NC(=O)c1cc2ccccc2o1)C(=O)N[C@@H](Cc1ccccc1)[C@H](O)C(=O)N1CSC(C)(C)[C@H]1C(=O)NC(C)(C)C [KNI-10009]	
655 ± 83 nM	75 ± 10 nM	COc1ccc(CCNC(=O)[C@H]2N(C(=O)[C@@H](O)[C@H](Cc3ccccc3)NC(=O)COc3c(C)cccc3C)CSC2(C)C)cc1 [KNI-10025]	
105 ± 18 nM	15 ± 5 nM	Cc1cccc(C)c1OCC(=O)N[C@@H](Cc1ccccc1)[C@H](O)C(=O)N1CSC(C)(C)[C@H]1C(=O)N[C@H]1CCc2ccccc21 [KNI-10026]	Ki (human Cathepsin D; [3]): 105 nM; inhibition constants against Plasmepsin II, in words [1]: nanomolar and subnanomolar range; Ki [1, 5]: 15 nM; Discrimination Factor: Fold Selectivity for Plasmepsin II over Cathepsin D [1]: 7
1030 ± 200 nM	1070 ± 90 nM	CC(C)[C@H](NC(=O)c1cccc2ccccc12)C(=O)N[C@@H](Cc1ccccc1)[C@H](O)C(=O)N1CSC(C)(C)[C@H]1C(=O)NC(C)(C)C [KNI-10027]	
690 ± 70 nM	1630 ± 157 nM	CC(C)[C@H](NC(=O)Cc1cccc2ccccc12)C(=O)N[C@@H](Cc1ccccc1)[C@H](O)C(=O)N1CSC(C)(C)[C@H]1C(=O)NC(C)(C)C [KNI-10028]	
282 ± 39 nM	860 ± 90 nM	CC(C)[C@H](NC(=O)Cc1ccc2ccccc2c1)C(=O)N[C@@H](Cc1ccccc1)[C@H](O)C(=O)N1CSC(C)(C)[C@H]1C(=O)NC(C)(C)C [KNI-10029]	
111 ± 15 nM		Cc1cccc(C)c1OCC(=O)N[C@@H](Cc1ccccc1)[C@H](O)C(=O)N1CSC(C)(C)[C@H]1C(=O)N[C@H](C)c1ccccc1 [KNI-10030]	Ki (human Cathepsin D; [3]): 111 nM; Ki [1, 6]: 11 nM; Ki [1, 5]: 11 nM; Discrimination Factor: Fold Selectivity for Plasmepsin II over Cathepsin D [1]: ~10
130 ± 19 nM	83 ± 7 nM	Cc1cccc(C)c1OCC(=O)N[C@@H](Cc1ccccc1)[C@H](O)C(=O)N1CSC(C)(C)[C@H]1C(=O)Nc1cccc2ccccc12 [KNI-10031]	
2620 ± 390 nM	535 ± 55 nM	CSCC[C@H](NC(=O)COc1cccc2cnccc12)C(=O)N[C@@H](Cc1ccccc1)[C@H](O)C(=O)N1CSC(C)(C)[C@H]1C(=O)NC(C)(C)C [KNI-10032]	
40 ± 10 nM		CSC[C@H](NC(=O)COc1cccc2cnccc12)C(=O)N[C@@H](Cc1ccccc1)[C@H](O)C(=O)N1CSC(C)(C)[C@H]1C(=O)N[C@H]1Cc2ccccc2[C@H]1O [KNI-10033]	Ki (human Cathepsin D; read-out: Ki for Cathepsin D): 40 nM; inhibition constants against Plasmepsin II, in words [1]: nanomolar and subnanomolar range; Ki [1, 6]: 3 nM; Ki [1, 5]: 3 nM; Discrimination Factor: Fold Selectivity for Plasmepsin II over Cathepsin D [1]: ~13
1670 ± 256 nM	496 ± 69 nM	CSC[C@H](NC(=O)COc1c(C)cccc1C)C(=O)N[C@@H](Cc1ccccc1)[C@H](O)C(=O)N1CSC(C)(C)[C@H]1C(=O)NC(C)(C)C [KNI-10041]	
2260 ± 166 nM	222 ± 17 nM	CCC[C@H](NC(=O)COc1cccc2cnccc12)C(=O)N[C@@H](Cc1ccccc1)[C@H](O)C(=O)N1CSC(C)(C)[C@H]1C(=O)NC(C)(C)C [KNI-10042]	
